Test results as given in paper PMC10208570, “Peptidomimetic antibiotics disrupt the lipopolysaccharide transport bridge of drug-resistant Enterobacteriaceae” (Science Advances, 2023).
Converted amounts (≈) assume the structure as drawn. Where two headings read alike, the source gives them in different places. Where a SMILES comes first, the peptide text is derived from it. Bridges are numbered along the chain shown (N, C = ends). [ ]: non-standard residue; d: D form. Hyp = O=C(O)[C@@H]1C[C@@H](O)CN1; dHyp = O=C(O)[C@H]1C[C@H](O)CN1; dPen = CC(C)(S)[C@@H](N)C(=O)O; Pen = CC(C)(S)[C@H](N)C(=O)O; dDab = NCC[C@@H](N)C(=O)O; Dab = NCC[C@H](N)C(=O)O

Assays:
[1] = system: K. pneumoniae 968733 (CST-R); assay: MIC assay (CLSI); assay type: cell-based, Klebsiella pneumoniae; conditions: for MIC: Klebsiella pneumoniae, read-out: MIC K. pneumoniae 968733 (CST-R) Parent
Protocol: (§1) MIC assays [Clinical and Laboratory Standards Institute (CLSI) methodology] and serial passage studies were performed as described by Luther et al. ([6]). […] Resistant mutants were isolated, and their MIC values were determined and sent to Microbes NG (Birmingham, United Kingdom) for whole-genome sequencing and bioinformatic analysis.

[2] = system: K. pneumoniae ATCC 43816 (parent / WT); assay: microbe, parasite or virus in culture; conditions: for MIC: Klebsiella pneumoniae
Protocol: as §1

[3] = system: K. pneumoniae ATCC 43816 LptA Q62L mutant; assay: microbe, parasite or virus in culture; conditions: for MIC: Klebsiella pneumoniae
Protocol: as §1

[4] = system: E. coli ATCC 25922 (parent / WT); assay: microbe, parasite or virus in culture; conditions: for MIC E. coli ATCC 25922 Parent: CLSI method, parent strain; for MIC: Escherichia coli
Protocol: as §1

[5] = system: E. coli ATCC 25922 LptA Q62L mutant; assay: microbe, parasite or virus in culture; conditions: for MIC E. coli ATCC 25922 Q62L mutant: CLSI method, clone harboring LptA Q62L; for MIC: Escherichia coli
Protocol: as §1

[6] = system: K. pneumoniae NCTC 13443 (NDM-1) (parent / WT); assay: microbe, parasite or virus in culture; conditions: for MIC: Klebsiella pneumoniae
Protocol: as §1

[7] = system: K. pneumoniae NCTC 13443 (NDM-1) LptA Q62L mutant; assay: microbe, parasite or virus in culture; conditions: for MIC: Klebsiella pneumoniae
Protocol: as §1

[8] = system: Klebsiella pneumoniae ATCC 43816 PglJ, PhnJ, ThiH mutant; assay: microbe, parasite or virus in culture; conditions: Klebsiella pneumoniae, ATCC43816, read-out: MIC Klebsiella pneumoniae ATCC 43816 PglJ, PhnJ, ThiH (1x)
Protocol: as §1

[9] = system: Klebsiella pneumoniae NCTC 13443 LptA I36S mutant; assay: microbe, parasite or virus in culture; conditions: Klebsiella pneumoniae, NCTC13443, read-out: MIC Klebsiella pneumoniae NCTC 13443 LptA I36S (2x)
Protocol: as §1

[10] = system: Escherichia coli ATCC 25922 LptA E84D mutant; assay: microbe, parasite or virus in culture; conditions: Escherichia coli, ATCC25922, read-out: MIC Escherichia coli ATCC 25922 LptA E84D (1x)
Protocol: as §1

[11] = system: Escherichia coli ATCC 25922 KdsD mutant; assay: microbe, parasite or virus in culture; conditions: Escherichia coli, ATCC25922, read-out: MIC Escherichia coli ATCC 25922 KdsD (2x)
Protocol: as §1

[12] = system: Klebsiella pneumoniae ATCC 43816 LptA I36N mutant; assay: microbe, parasite or virus in culture; conditions: Klebsiella pneumoniae, ATCC43816, read-out: MIC Klebsiella pneumoniae ATCC 43816 LptA I36N (1x)
Protocol: as §1

[13] = system: Klebsiella pneumoniae NCTC 13443 YejM mutant; assay: microbe, parasite or virus in culture; conditions: Klebsiella pneumoniae, NCTC13443, read-out: MIC Klebsiella pneumoniae NCTC 13443 YejM (1x)
Protocol: as §1

[14] = system: Klebsiella pneumoniae NCTC 13443 LpxC, LpxD mutant; assay: microbe, parasite or virus in culture; conditions: Klebsiella pneumoniae, NCTC13443, read-out: MIC Klebsiella pneumoniae NCTC 13443 LpxC, LpxD (1x)
Protocol: as §1

[15] = system: Klebsiella pneumoniae ATCC 43816 LptA I36S mutant; assay: microbe, parasite or virus in culture; conditions: Klebsiella pneumoniae, ATCC43816, read-out: MIC Klebsiella pneumoniae ATCC 43816 LptA I36S (1x)
Protocol: as §1

[16] = system: Klebsiella pneumoniae ATCC 43816 LapB mutant; assay: microbe, parasite or virus in culture; conditions: Klebsiella pneumoniae, ATCC43816, read-out: MIC Klebsiella pneumoniae ATCC 43816 LapB (1x)
Protocol: as §1

[17] = system: Klebsiella pneumoniae ATCC 43816 LptA L116Q mutant; assay: microbe, parasite or virus in culture; conditions: Klebsiella pneumoniae, ATCC43816, read-out: MIC Klebsiella pneumoniae ATCC 43816 LptA L116Q (1x)
Protocol: as §1

[18] = system: human red blood cells; assay: Haemolysis; assay type: cell-based; conditions: PBS-washed human red blood cells; 1 h at 200 mg/liter, 37°C; OD 540 nm; versus 100% lysis control 2.5% Triton X-100; biological replicates
Protocol: To test their hemolytic potential, compounds were incubated in the presence of phosphate-buffered saline (PBS)–washed human red blood cells. After 1-hour incubation at 200 mg/liter and 37°C, the samples were centrifuged (3220g), the supernatants were diluted in Dulbecco’s PBS, and optical density at 540 nm was determined. The hemolysis induced by the compound was calculated versus a 100% lysis control prepared with 2.5% Triton X-100 (table S4A).

[19] = Plasma protein binding; assay type: in vitro ADME, mouse; conditions: mouse, plasma, pH 7.5
Protocol: (§2) After ultrafiltration, protein binding was determined by subtracting the percentage of compound in ultrafiltrate from the total amount of compound in spiked plasma (table S4A).

[20] = Plasma protein binding; assay type: in vitro ADME, human; conditions: human, plasma, pH 7.5
Protocol: as §2

[21] = in vitro; assay type: cell-based; conditions: human
Protocol: The cytotoxicity of compounds was determined by determining the number of viable cells using the Sigma Cell Counting Kit-8 (WST-8). HeLa cells were incubated at 37°C and 5% CO2 for 24 hours, after which the medium was replaced with fresh medium containing dilutions of compounds. […]

[22] = CLSI method, clone harboring LptA Q62L
[23] = ATCC43816, read-out: MIC K. pneumoniae ATCC 43816 Parent
[24] = NCTC13443, read-out: MIC K. pneumoniae NCTC 13443 (NDM-1) Parent
[25] = ATCC25922, read-out: MIC E. coli ATCC 25922 Parent
[26] = ATCC25922, read-out: MIC E. coli ATCC 25922 Q62L mutant
[27] = ATCC43816, read-out: MIC Klebsiella pneumoniae ATCC 43816 WT
[28] = ATCC43816, read-out: MIC Klebsiella pneumoniae ATCC 43816 LptA Q62L (4x)
[29] = NCTC13443, read-out: MIC Klebsiella pneumoniae NCTC 13443 WT
[30] = ATCC25922, read-out: MIC Escherichia coli ATCC 25922 WT
[31] = ATCC25922, read-out: MIC Escherichia coli ATCC 25922 LptA Q62L (7x)
[32] = NCTC13443, read-out: MIC Klebsiella pneumoniae NCTC 13443 LptA Q62L (5x)

CC[C@@H](C)[C@@H](NC(=O)[C@H]1C[C@H](O)CN1C(=O)[C@H](N)C(C)C)C(=O)N[C@@H](C(=O)N[C@H](Cc1ccc(O)cc1)C(=O)N[C@H]1C(=O)N[C@H](CC(N)=O)C(=O)N[C@H](CCCNC(=N)N)C(=O)N[C@H](CCN)C(=O)N[C@H]([C@H](C)O)C(=O)N[C@@H](CCN)C(=O)N[C@H](CCCCN)C(=O)N[C@@H](C(=O)N[C@H](CCN)C(=O)N[C@H](CCCNC(=N)N)C(=O)N[C@H](Cc2ccc(O)cc2)C(=O)O)CSSC1(C)C)[C@H](C)O [6-enant.] (H-[dV][dHyp][dI][dT][dY][dPen][dN][dR][dDab][dT][Dab][dK][dC][dDab][dR][dY]-OH; disulfide 6-13)
MIC K. pneumoniae 968733 (CST-R) Parent ([1]; CLSI method, colistin-resistant strain): >8 micrograms per milliliter
MIC K. pneumoniae ATCC 43816 Parent ([2]; CLSI method, parent strain): >8 micrograms per milliliter
MIC K. pneumoniae ATCC 43816 Q62L mutant [3, 22]: >8 micrograms per milliliter
MIC E. coli ATCC 25922 Parent [4]: >8 micrograms per milliliter
MIC E. coli ATCC 25922 Q62L mutant [5]: >8 micrograms per milliliter

CNC(C)C1CCC(N)C(OC2C(N)CC(N)C(OC3OCC(C)(O)C(NC)C3O)C2O)O1 (stereo not shown) [Gentamicin, reference compound]
MIC [1]: 0.5 µg/mL (≈ 1.05 µM)
MIC [2, 23]: 0.5 µg/mL (≈ 1.05 µM)
MIC ([3]; ATCC43816, read-out: MIC K. pneumoniae ATCC 43816 Q62L mutant): 0.5 µg/mL (≈ 1.05 µM)
MIC [6, 24]: > 8 µg/mL
MIC [4, 25]: 0.5 µg/mL (≈ 1.05 µM)
MIC [5, 26]: 1 µg/mL (≈ 2.09 µM)
MIC ([7]; NCTC13443, read-out: MIC K. pneumoniae NCTC 13443 (NDM-1) Q62L mutant): > 8 µg/mL

CN[C@H](CC(C)C)C(=O)N[C@H]1C(=O)N[C@@H](CC(N)=O)C(=O)N[C@H]2C(=O)N[C@H]3C(=O)N[C@H](C(=O)N[C@H](C(=O)O)c4cc(O)cc(O)c4-c4cc3ccc4O)[C@H](O)c3ccc(c(Cl)c3)Oc3cc2cc(c3O[C@@H]2O[C@H](CO)[C@@H](O)[C@H](O)[C@H]2O[C@H]2C[C@](C)(N)[C@H](O)[C@H](C)O2)Oc2ccc(cc2Cl)[C@H]1O [Vancomycin]
MIC [8]: > 64 µg/mL
MIC [9]: > 64 µg/mL
MIC [10]: > 64 µg/mL
MIC [11]: > 64 µg/mL
MIC [2, 27]: > 64 µg/mL
MIC [12]: > 64 µg/mL
MIC [3, 28]: > 64 µg/mL
MIC [13]: > 64 µg/mL
MIC [14]: > 64 µg/mL
MIC [6, 29]: > 64 µg/mL
MIC [4, 30]: > 64 µg/mL
MIC [15]: > 64 µg/mL
MIC [5, 31]: > 64 µg/mL
MIC [16]: > 64 µg/mL
MIC [17]: > 64 µg/mL
MIC [7, 32]: > 64 µg/mL

CN(C)c1cc(NC(=O)CNC(C)(C)C)c(O)c2c1C[C@H]1C[C@H]3[C@H](N(C)C)C(O)=C(C(N)=O)C(=O)[C@@]3(O)C(O)=C1C2=O [Tigecycline, reference compound]
MIC [1]: 0.5 µg/mL (≈ 0.854 µM)
MIC [2, 23]: 0.5 µg/mL (≈ 0.854 µM)
MIC [6, 24]: 2 µg/mL (≈ 3.41 µM)
MIC [4, 25]: 0.25 µg/mL (≈ 0.427 µM)
MIC [5, 26]: 0.25 µg/mL (≈ 0.427 µM)

CO[C@@H]1[C@@H](OC(N)=O)[C@@H](O)[C@H](Oc2ccc3c(O)c(NC(=O)c4ccc(O)c(CC=C(C)C)c4)c(=O)oc3c2C)OC1(C)C [Novobiocin]
MIC [8]: 32 µg/mL (≈ 52.2 µM)
MIC [9]: > 64 µg/mL
MIC [10]: > 64 µg/mL
MIC [11]: 64 µg/mL (≈ 104 µM)
MIC [2, 27]: > 64 µg/mL
MIC [12]: > 64 µg/mL
MIC [3, 28]: > 64 µg/mL
MIC [13]: > 64 µg/mL
MIC [14]: > 64 µg/mL
MIC [6, 29]: > 64 µg/mL
MIC [4, 30]: > 64 µg/mL
MIC [15]: > 64 µg/mL
MIC [5, 31]: 64 µg/mL (≈ 104 µM)
MIC [16]: 32 µg/mL (≈ 52.2 µM)
MIC [17]: > 64 µg/mL
MIC [7, 32]: > 64 µg/mL

CC[C@H](C)[C@H](NC(=O)[C@@H](NC(=O)[C@@H]1C[C@@H](O)CN1C(=O)[C@@H](N)C(C)C)[C@@H](C)CC)C(=O)N[C@@H](Cc1ccc(O)cc1)C(=O)N[C@@H]1C(=O)N[C@@H](CC(N)=O)C(=O)N[C@@H](CCCNC(=N)N)C(=O)N[C@@H](CCN)C(=O)N[C@@H]([C@@H](C)O)C(=O)N[C@H](CCN)C(=O)N[C@@H](CCCCN)C(=O)N[C@H](C(=O)N[C@@H](CCN)C(=O)N[C@@H](CCCNC(=N)N)C(=O)N[C@@H](Cc2ccc(O)cc2)C(=O)O)CSSC1(C)C [Compound 4] (H-V[Hyp]IIY[Pen]NR[Dab]T[dDab]KC[Dab]RY-OH; disulfide 6-13)
Haemolysis % at 0.2 g/L [18]: 0%
fraction unbound at 30 min, 10 mg/liter [19]: 0.14
fraction unbound at 30 min, 10 mg/liter [20]: 0.09
MIC K. pneumoniae ATCC 43816 Parent ([2]; ATCC 43816): 0.25 micrograms per milliliter
MIC K. pneumoniae NCTC 13443 (NDM-1) Parent ([6]; CLSI method, parent strain): 1 micrograms per milliliter
MIC E. coli ATCC 25922 Parent [4]: 0.063 micrograms per milliliter
MIC E. coli ATCC 25922 Q62L mutant [5]: 0.25 micrograms per milliliter
MIC K. pneumoniae NCTC 13443 (NDM-1) Q62L mutant [7, 22]: 4 micrograms per milliliter
IC50 at 48 h [21]: 536 µM
